Among the test systems are COLO 205; U-251; IGROV-1; OVCAR-5; NCI-H460; SK-MEL-2; SK-MEL-5; EKVX; CCRF-CEM; SNB-75; HT-29; K562; SF-295; SK-MEL-28; OVCAR-3; UACC-62; A549; OVCAR-8; OVCAR-4; SNB-19.
Holding throughout (assay): inhibition of tumour cell growth, NCI panel, 48 h

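Tested at 5 concentrations; 48 h exposure; 96-well plates; endpoints linearly interpolated, else capped at highest concentration. GI50 marks 50% less growth.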 Activity calls are given as the source filed them. No stated cut-off is given here; in the data, active = GI50 up to about 1.1 µM and inactive = higher.

Regarding `CSCSCC(CO)NC(=O)/C=C\c1c(C)[nH]c(=O)[nH]c1=O` (stereo unspecified), the GI50 in the test on COLO 205 was 8.79 µM (inactive); in the test on U-251 it was 7.57 µM (inactive); in the test on IGROV-1, 23.7 µM (inactive); with OVCAR-5 it was 57.3 µM (inactive); in the test on NCI-H460, 12.2 µM (inactive); with SK-MEL-2, 14.2 µM (inactive). Also, the GI50 in the test with SK-MEL-5 is 21.5 µM (inactive); in the test with EKVX, 16.1 µM (inactive); in the test with CCRF-CEM it was 2.27 µM (inactive); in the test with SNB-75 it was 16.3 µM (inactive); in the test on HT-29, 19.3 µM (inactive); in the test with K562, 5.2 µM (inactive). Further, the GI50 in the test with SF-295 was 76.6 µM (inactive); with SK-MEL-28, 28.6 µM (inactive); in the test on OVCAR-3 it was 1.79 µM (inactive); with UACC-62 it was 22.4 µM (inactive); in the test with A549, 77.1 µM (inactive); with OVCAR-8 it was 10 µM (inactive). The GI50 with OVCAR-4 is 1.23 µM (inactive); in the test on SNB-19 it was 14.7 µM (inactive).

As to `COC(=O)[C@@H](O)[C@](O)(CCC(C)C)C(=O)O[C@@H]1C(OC)=C[C@]23CCCN2CCc2cc4c(cc2[C@H]13)OCO4`, the GI50 with COLO 205 is 1.29 µM (inactive); in the test with U-251, 0.869 µM (active); in the test with IGROV-1, 1.07 µM (active); in the test on OVCAR-5, 3.24 µM (inactive); with NCI-H460, 0.325 µM (active); in the test with SK-MEL-2, 2.19 µM (inactive). Also, the GI50 with SK-MEL-5 is 1.48 µM (inactive); in the test with EKVX, 1.71 µM (inactive); in the test with CCRF-CEM it was 1.51 µM (inactive); in the test with SNB-75 it was 1.62 µM (inactive); in the test with HT-29 it was 0.891 µM (active); with K562 it was 0.659 µM (active). Moreover, the GI50 in the test on SF-295 was 1.53 µM (inactive); in the test with SK-MEL-28, 0.518 µM (active); with OVCAR-3 it was 1.24 µM (inactive); with UACC-62 it was 3.9 µM (inactive); with A549, 0.951 µM (active); with OVCAR-8 it was 1.88 µM (inactive). Moreover, the figures for the GI50 in the test on OVCAR-4 and in the test on SNB-19 were 1.06 µM (active) and 0.373 µM (active), respectively.

In the case of `NC(=O)C(=O)N/N=C1/c2ccccc2CC1C1(O)C(=O)Nc2c(Cl)cc(Cl)cc21` (stereo unspecified), the GI50 in the test on COLO 205, in the test on U-251, with IGROV-1, in the test on OVCAR-5, in the test on NCI-H460 and with SK-MEL-2 was > 100 µM (inactive) throughout. Besides, the GI50 in the test with SK-MEL-5 was > 100 µM (inactive); with EKVX, > 100 µM (inactive); in the test with CCRF-CEM, 61.5 µM (inactive); with SNB-75, 97.3 µM (inactive); with HT-29, > 100 µM (inactive); with K562 it was 88.7 µM (inactive). Further, the GI50 was > 100 µM (inactive) in the test with SF-295; > 100 µM (inactive) with SK-MEL-28; > 100 µM (inactive) in the test with OVCAR-3; > 100 µM (inactive) in the test with UACC-62; 69.7 µM (inactive) with A549; > 100 µM (inactive) in the test on OVCAR-8. Moreover, the GI50 in the test with OVCAR-4 and in the test on SNB-19 was > 100 µM (inactive) in each case.

Consider `N/C(=N\O)N/N=C\c1ccccc1O`, for which the GI50 in the test on COLO 205 was 5.81 µM (inactive); in the test with U-251, 8.34 µM (inactive); in the test with IGROV-1 it was 11.3 µM (inactive); with OVCAR-5, 37.5 µM (inactive); in the test on NCI-H460, 3.29 µM (inactive); with SK-MEL-2, 21 µM (inactive). The GI50 was 10 µM (inactive) in the test on SK-MEL-5; 11.2 µM (inactive) in the test on EKVX; 5.6 µM (inactive) in the test with CCRF-CEM; 9.48 µM (inactive) with SNB-75; 4.19 µM (inactive) in the test on HT-29; 3.99 µM (inactive) in the test on K562. Moreover, the GI50 in the test with SF-295 is 4 µM (inactive); in the test with SK-MEL-28 it was 19.3 µM (inactive); in the test on OVCAR-3 it was 10.4 µM (inactive); in the test on UACC-62, 5.64 µM (inactive); in the test with A549, 6.01 µM (inactive); in the test on OVCAR-8, 3.2 µM (inactive). For the same compound, the values for the GI50 with OVCAR-4 and in the test with SNB-19 were 4.06 µM (inactive) and 18.9 µM (inactive), respectively.

As for `CCOC(=O)C1C(c2cc(OC)c(O)c(OC)c2)c2cc3c(cc2OC1(C)O)OCO3` (stereo unspecified), the GI50 in the test on COLO 205 was > 100 µM (inactive); in the test with U-251, 78.9 µM (inactive); with IGROV-1 it was > 100 µM (inactive); in the test with NCI-H460, 48.2 µM (inactive); with SK-MEL-2, > 100 µM (inactive); with SK-MEL-5, 36 µM (inactive). Besides, the GI50 was > 100 µM (inactive) with EKVX; > 100 µM (inactive) in the test on CCRF-CEM; 16.5 µM (inactive) in the test with SNB-75; 41.1 µM (inactive) in the test on HT-29; > 100 µM (inactive) with K562; 35.2 µM (inactive) in the test with SF-295. The GI50 in the test on SK-MEL-28 was 60.7 µM (inactive); in the test on OVCAR-3 it was 65.3 µM (inactive); in the test with UACC-62 it was 43.9 µM (inactive); in the test on A549, 45.6 µM (inactive); in the test on OVCAR-8, > 100 µM (inactive); in the test on OVCAR-4, 57.8 µM (inactive). For the same compound, in the test with SNB-19, the GI50 is > 100 µM (inactive).

`CC(=O)OC1C=C(C=O)C(O)(C=O)C2(C)CCCC(C)(C)C12` (stereo unspecified): the GI50 in the test on COLO 205 is 0.859 µM (active); in the test on U-251, 3.8 µM (inactive); in the test with IGROV-1, 2.49 µM (inactive); in the test on OVCAR-5, 4.55 µM (inactive); in the test on NCI-H460, 1.64 µM (inactive); in the test on SK-MEL-2, 2.86 µM (inactive). The GI50 is 1.17 µM (inactive) with SK-MEL-5; 2.65 µM (inactive) with EKVX; 0.238 µM (active) in the test with CCRF-CEM; 2.4 µM (inactive) in the test on SNB-75; 1.39 µM (inactive) with HT-29; 0.809 µM (active) in the test with K562. Besides, the GI50 in the test with SF-295 was 3.07 µM (inactive); in the test on SK-MEL-28 it was 1.05 µM (active); in the test with OVCAR-3, 0.693 µM (active); with UACC-62 it was 2.76 µM (inactive); in the test on A549 it was 4.54 µM (inactive); with OVCAR-8, 1.24 µM (inactive). Further, the values for the GI50 with OVCAR-4 and in the test on SNB-19 were 1.33 µM (inactive) and 5.6 µM (inactive), respectively.

With `Cn1ncc2c(=O)[nH]c(-c3ccccc3)nc21`, the GI50 in the test with COLO 205, in the test on U-251, in the test on IGROV-1, in the test with OVCAR-5, in the test with SK-MEL-2 and in the test with SK-MEL-5 was > 100 µM (inactive) in each case. Moreover, the GI50 with EKVX, in the test on CCRF-CEM, in the test on SNB-75, with HT-29, in the test with K562 and with SF-295 was > 100 µM (inactive) in each case. In addition, the GI50 in the test with SK-MEL-28, in the test with UACC-62, with A549, with OVCAR-8, with OVCAR-4 and in the test with SNB-19 was > 100 µM (inactive) each time.

With `COc1ccc(C2C(=O)C(Cl)N2Nc2nc(C)cc(O)n2)cc1OC` (stereo unspecified), the GI50 in the test with COLO 205 was 51.2 µM (inactive); with U-251, 26.2 µM (inactive); in the test on IGROV-1, 10.9 µM (inactive); in the test with OVCAR-5, > 100 µM (inactive); with NCI-H460, 26.8 µM (inactive); with SK-MEL-2, 22.6 µM (inactive). The GI50 with SK-MEL-5 is 29.3 µM (inactive); in the test on EKVX, 56.8 µM (inactive); with CCRF-CEM, 5.58 µM (inactive); in the test with SNB-75, 8.13 µM (inactive); with HT-29, 46.1 µM (inactive); with K562, 22 µM (inactive). For the same compound, the GI50 was 43.3 µM (inactive) in the test with SK-MEL-28; 10.2 µM (inactive) with OVCAR-3; 28.4 µM (inactive) in the test with UACC-62; 59.7 µM (inactive) in the test on A549; 26.3 µM (inactive) in the test on OVCAR-8; 30.8 µM (inactive) in the test with OVCAR-4. Besides, the GI50 in the test with SNB-19 was 40.5 µM (inactive).

`CCOC(=O)c1c(NC(=S)NCc2ccccc2)sc2c1CCN(C)C2`: the GI50 is 46.1 µM (inactive) in the test on COLO 205; 33 µM (inactive) with IGROV-1; > 100 µM (inactive) in the test with OVCAR-5; 40.8 µM (inactive) in the test with NCI-H460; 39.5 µM (inactive) in the test on SK-MEL-2; 45.1 µM (inactive) in the test with SK-MEL-5. Besides, the GI50 in the test on EKVX is 78 µM (inactive); in the test on CCRF-CEM it was 17.6 µM (inactive); with HT-29, 45.5 µM (inactive); in the test on K562, 21.7 µM (inactive); in the test on SF-295, 57.3 µM (inactive); with OVCAR-3, 36.5 µM (inactive). The GI50 in the test on UACC-62 is > 100 µM (inactive); with A549, 53.6 µM (inactive); in the test with OVCAR-8 it was 82.2 µM (inactive); with SNB-19, > 100 µM (inactive).

As for `O=C1OC(c2ccccc2)=N/C1=C\c1cccnc1`, the GI50 in the test with U-251, in the test with IGROV-1, in the test with OVCAR-5, in the test with NCI-H460, in the test with SK-MEL-2 and with SK-MEL-5 was > 100 µM (inactive) each time. For the same compound, the GI50 with EKVX was > 100 µM (inactive); with CCRF-CEM, 29.2 µM (inactive); in the test on SNB-75, > 100 µM (inactive); in the test with HT-29 it was > 100 µM (inactive); with K562 it was 34.8 µM (inactive); in the test on SF-295 it was > 100 µM (inactive). Moreover, the GI50 in the test on SK-MEL-28, in the test on OVCAR-3, with UACC-62, in the test with A549, in the test on OVCAR-8 and with OVCAR-4 was > 100 µM (inactive) each time. In addition, in the test on SNB-19, the GI50 was > 100 µM (inactive).
